In US20190352276A1, “INHIBITORS OF BRUTON'S TYROSINE KINASE” (Joint Stock Company "Biocad", priority 2016, published 2019):
Read-outs that look alike come from different tables or passages of the source.

Legend:
[1] = molecular target: T1, recombinant Btk kinase enzyme (Homo sapiens, UniProt Q06187); experiment: In vitro inhibition of Btk kinase activity (ADP-Glo); format: biochemical
T1 construct: purchased SignalChem B10-10H
Protocol: To assess Btk kinase activity described herein, SignalChem kinase system was used. Btk kinase activity was determined in the reaction between recombinant Btk kinase enzyme (SignalChem #B10-10H) and Poly (4:1 Glu, Tyr) peptide substrate in the presence of the inhibitor.
Staurosporine (Abcam Biochemicals, ab146588) was used as a reference inhibitor and 0.1% DMSO in the reaction buffer—as a negative control. The solution of 0.5 mg/mL peptide substrate and 50 &M ATP in the same buffer were added; the solution was incubated for 180 minutes at 37° C. To detect the amount of ATP taken up during the kinase reaction, the equivalent amount of ADP (from the ADP Glo Detection Kit (Promega, #V9101)) was used according to the protocol. The reaction mixture was equilibrated to room temperature. 25 µL of ADP-Glo Reagent were added into each well; the plate was incubated for 40 minutes. 50 μL of Kinase Detection Reagent were added; the plate was incubated for 30 minutes. The luminescence was measured with multimode plate reader (Tecan Infinite M200Pro, Switzerland). IC50 values were calculated using Magellan 7.2 software (Tecan, Switzerland) approximating experimental points by four-parameter logistic model with the optimization by Levenberg-Marquardt.

[2] = Permeability through the monolayer of Caco-2 cells; format: in vitro ADME; conditions: human; for Papp A→B at 2 h, 10 μM / Papp B→A at 2 h, 10 μM: 2 h at 37° C.; for efflux ratio at 2 h, 10 μM: read-out: efflux (Papp B-A/Papp A-B)
Source text: Assessment of permeability through the monolayer of Caco-2 cells allows to evaluate the ability of the candidate compounds to penetrate through biological membranes by active and passive transport.
Caco-2, the cells of the intestinal epithelium, had been cultured in transwell plate inserts with the filters (with pores of 0.4 μm, BD Falcon with High Density, #353495) for 21 days, and then the integrity of the monolayer were estimated with Lucifer Yellow dye (Sigma-Aldrich, USA) by standard protocol. When setting the A→B transfer, solutions of test substances were added in a buffer with pH 6.5 (Hanks solution, 10 mM HEPES, 15 mM glucose solution) with the concentration of 10 μM into the upper chamber; the lower chamber was filled with a buffer with pH 7.4 (Hanks solution, 10 mM HEPES, 15 mM glucose solution, 1% BSA). When setting B→A transfer, the upper chamber was filled with the buffer with pH 6.5, and solutions of the test substances were added in the buffer with pH 7.4 at the concentration of 10 μM in the lower chamber. Propranolol was used as a control substance (as it has high permeability).
We used gradient elution (1 mL/min flow rate). We determined the areas of peaks corresponding to the compounds. On the basis of peak areas in the calibration standards we determined the concentration of compound in the initial solution and in the samples from the wells of the upper and lower chambers.
Papp, permeability through the cell layer, was calculated using the following formula:
Papp=(C(t)*V)/(C(0)*t*Area), where
Papp is the effective constant of permeability, m/s V is the volume of solution (0.8 ml in A→B test, 0.2 ml in B→A test), ml Area is the surface area of the membrane (0.33 cm^2), cm^2 t is the time of incubation (7200 sec), sec C(0) is the concentration of the initial solution, μM C(t) is the concentration of the solution after 2 hours (the concentration in the sample from the well of the lower chamber in A→B test; the concentration in the sample from the well of the top chamber in B→A test), μM
The value was calculated with the following formula:
efflux=Papp B-A/Papp A-B, where
Papp A-B is the value of the permeability in the direct test (A→B); Papp B-A is the value of the permeability in the backward test in (B→A).

[3] = tested on: Mino (mantle cell lymphoma); experiment: Antiproliferative activity, Mino cells (Alamar Blue); format: cell-based; conditions: Homo sapiens
Outline: (§1)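 Cells grown in RPMI-1640 with 10% FBS and gentamicin, seeded ~3*10^4 cells/well, then exposed to compounds (DMSO <1% final) for 72 h at 37 °C, 5% CO2. Viability by Alamar Blue after 14-16 h, fluorescence Ex 540/Em 590 nm; IC50 from four-parameter logistic fit.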

[4] = tested on: Z-138 (mantle cell lymphoma); experiment: Antiproliferative activity, Z-138 cells (Alamar Blue); format: cell-based; conditions: Homo sapiens
Outline: as §1

[5] = General cytotoxicity on HepG2 cells (CC50; therapeutic index CC50 HepG2/IC50 Mino); format: cell-based; conditions: human, HepG2 cells (hepatocellular carcinoma), 72 hours, Alamar Blue
Outline: (§2)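 Cells seeded at 2*10^4 per well in DMEM, compounds added after 24 h at 200 μM to 4 μM final and incubated 72 h. Viability read with Alamar Blue to derive CC50; therapeutic index is CC50 (HepG2) divided by IC50 (Mino).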

[6] = tested on: HepG2 cells (hepatocellular carcinoma); experiment: as above; format: cell-based; conditions: therapeutic index
Outline: as §2

[7] = tested on: DOHH2 (follicular lymphoma); experiment: Antiproliferative activity, DOHH2 cells (Alamar Blue); format: cell-based; conditions: Homo sapiens, DOHH-2, Table 10, 72 h, average of several tests
Protocol: Antiproliferative activity of BTK inhibitors was measured in cell-based bioassay on B-cells cultures: Mino (mantle cell lymphoma, ATCC® CRL-3000™), Z-138 (mantle cell lymphoma, ATCC® CRL-3001™) and DOHH2 (follicular lymphoma, Creative Bioarray CSC-C0219) using cell viability reagent Alamar Blue (Invitrogen, #DAL 1100). Cells were cultured in 10% FB S-supplemented (HyClone, #SH3008803/Gibco, #16140-071) RPMI-1640 (PanEco, #S330p) for at least 1 passage after thawing, washed with PBS and passaged in 96-well culture plates (Corning, #3599) with growth medium with 10% FBS (HyClone, #SH3008803/Gibco, #16140-071) and antibiotic (50 μg/ml of gentamicin (Biolot, #1.3.16))≈3*10^4 cells in 50 μl of medium per well.
The compounds were dissolved in DMSO and diluted with the assay medium to final concentrations ranging from […]. 150 μl of each diluted compound were then added to each well (final concentration of DMSO was less than 1%) and incubated at 37° C. in an incubator under 5% of CO2 for 72 h. After incubation, 20 μl of Alamar Blue reagent (Invitrogen, #DAL1100) were added to each well. The plates were shaked on an orbital shaker (Biosan, Latvia) and then incubated for 14-16 hours at 37° C. in the incubator.
The number of living cells were estimated, measuring the fluorescence signal at the excitation wavelength (REx) of 540 nm and the emission wavelength (λEm) of 590 nm on a microplate reader (Tecan Infinite M200Pro, Switzerland).
For each compound, IC50 was calculated using Magellan 7.2 software (Tecan, Switzerland) approximating experimental points by four-parameter logistic model with the optimization by Levenberg-Marquardt.

[8] = Stability in human blood plasma; conditions: 10 μM in pooled human blood plasma, incubated 4 hours at 37° C.
[9] = Chemical stability in artificial gastric fluid (SGF without enzymes); conditions: 10 μM in SGF without enzymes, pH=1.4, 37° C.
[10] = Table 8, ADP-Glo, read-out: IC50 kinase BTK
[11] = Table 10, 72 h, average of several tests
[12] = Table 10, average of several tests

T1 sequence (Q06187 whole entry): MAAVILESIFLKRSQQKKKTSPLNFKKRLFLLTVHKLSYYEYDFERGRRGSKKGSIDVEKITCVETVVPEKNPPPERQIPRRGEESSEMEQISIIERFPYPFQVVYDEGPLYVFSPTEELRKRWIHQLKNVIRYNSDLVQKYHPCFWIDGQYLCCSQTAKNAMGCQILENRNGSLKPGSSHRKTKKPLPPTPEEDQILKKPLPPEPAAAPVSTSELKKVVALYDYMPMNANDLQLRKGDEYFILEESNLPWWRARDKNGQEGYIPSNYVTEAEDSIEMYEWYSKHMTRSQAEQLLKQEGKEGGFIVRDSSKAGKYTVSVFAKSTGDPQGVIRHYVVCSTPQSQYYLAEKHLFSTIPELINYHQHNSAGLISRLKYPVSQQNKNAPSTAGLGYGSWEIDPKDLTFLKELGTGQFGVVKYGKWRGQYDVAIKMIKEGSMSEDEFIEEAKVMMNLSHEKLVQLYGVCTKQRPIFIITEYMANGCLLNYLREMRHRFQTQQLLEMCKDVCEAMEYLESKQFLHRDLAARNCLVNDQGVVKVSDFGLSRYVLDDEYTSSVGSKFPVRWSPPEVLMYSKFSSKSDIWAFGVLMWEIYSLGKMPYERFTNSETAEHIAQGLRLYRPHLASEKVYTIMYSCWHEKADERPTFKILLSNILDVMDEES

IC50 ([1]; Table 11, BTK kinase, read-out: IC50 kinase) [µM]	Papp A→B at 2 h, 10 μM [2] [×10⁻⁶ cm/s]	Papp B→A at 2 h, 10 μM [2] [×10⁻⁶ cm/s]	efflux ratio at 2 h, 10 μM [2]	IC50 ([3]; Table 11, 72 h) [µM]	IC50 ([4]; Table 11, 72 h) [µM]	IC50 [1, 10] [µM]	IC50 [3, 11] [µM]	IC50 [4, 11] [µM]	IC50 [7] [µM]	Amount of substance in the sample, % (stability in human blood plasma) [8] [%]	Amount of substance in the sample in % (chemical stability) [9] [%]	SMILES	CC50 at 72 h ([5]; Table 11) [µM]	CC50 (HepG2)/IC50 (Mino) ([6]; Table 11)	CC50 at 72 h [5, 12] [µM]	CC50 (HepG2)/IC50 (Mino) ([6]; Table 10)
1.51	14.8	7.4	0.5	13.2	28							C=CC(=O)N1CCC[C@@H](n2nc(-c3ccc(Oc4ccncc4)cc3)c3cncc(C#N)c32)C1 [BCD-BTK-123, (R)-1-(1-acryloylpiperidin-3-yl)-3-(4(pyridin-4-yloxy)phenyl)-1H-pyrazolo[4,3-c]pyridin-7-carbonitrile]	50.4	3.81		
	8	1.4	0.17			0.0389				85.2	99.9	C=CC(=O)N1CCC[C@@H](n2nc(-c3ccc(C(=O)Nc4ccccn4)cc3)c3cncc(C#N)c32)C1 [BCD-BTK-228, (R)-4-(1-(1-acryloylpiperidin-3-yl)-7-cyano-1H-pyrazolo[4,3-c]pyridin-3-yl)-N-(pyridin-2-yl)benzamide]				
						0.0115	5.44	4.11	1.11		100	C=CC(=O)N1CCC[C@@H](n2nc(-c3ccc(C(=O)Nc4ncccc4F)cc3)c3c(N)ncc(Cl)c32)C1 [BCD-BTK-233, (R)-4-(1-(1-acryloylpiperidin-3-yl)-4-amino-7-chloro-1H-pyrazolo[4,3-c]pyridin-3-yl)-N-(3-fluoropyridin-2-yl)benzamide]			18.4	3.39
						0.0147	5.81	> 50	> 100			C=CC(=O)N1CCC[C@@H](n2nc(-c3ccc(C(=O)Nc4cc(C(F)(F)CCC)ccn4)cc3)c3cncc(F)c32)C1 [BCD-BTK-247, (R)-4-(1-(1-acryloylpiperidin-3-yl)-7-fluoro-1H-pyrazolo[4,3-c]pyridin-3-yl)-N-(4-(1,1-difluorobutyl)pyridin-2-yl)benzamide]			> 100	>17.21
						0.0112	2.95	6.65				C=CC(=O)N1CCC[C@@H](n2nc(-c3ccc(C(=O)Nc4cc(C(F)(F)CCC)ccn4)cc3)c3c(N)ncc(Cl)c32)C1 [BCD-BTK-254, (R)-4-(1-(1-acryloylpiperidin-3-yl)-4-amino-7-chloro-1H-pyrazolo[4,3-c]pyridin-3-yl)-N-(4-(1,1-difluorobutyl)pyridin-2-yl)benzamide]			12.3	4.18
						0.0652	2	1.19	1.94			CC#CC(=O)N1CCC[C@@H](n2nc(-c3ccc(C(=O)Nc4ccccn4)cc3)c3c(N)ncc(Cl)c32)C1 [BCD-BTK-295, (R)-4-(4-amino-1-(1-(but-2-ynoyl)piperidin-3-yl)-7-chloro-1H-pyrazolo[4,3-c]pyridin-3-yl)-N-(pyridin-2-yl)benzamide]			32.5	16.23

The remaining lines, values behind:

SMILES	IC50 ([1]; Table 11, BTK kinase, read-out: IC50 kinase) [µM]	Papp A→B at 2 h, 10 μM [2] [×10⁻⁶ cm/s]	Papp B→A at 2 h, 10 μM [2] [×10⁻⁶ cm/s]	efflux ratio at 2 h, 10 μM [2]	IC50 ([3]; Table 11, 72 h) [µM]	IC50 ([4]; Table 11, 72 h) [µM]	IC50 [1, 10] [µM]	IC50 [3, 11] [µM]	IC50 [4, 11] [µM]	IC50 [7] [µM]	Amount of substance in the sample, % (stability in human blood plasma) [8] [%]	Amount of substance in the sample in % (chemical stability) [9] [%]	CC50 at 72 h ([5]; Table 11) [µM]	CC50 (HepG2)/IC50 (Mino) ([6]; Table 11)	CC50 at 72 h [5, 12] [µM]	CC50 (HepG2)/IC50 (Mino) ([6]; Table 10)
C=CC(=O)N1CCC[C@@H](n2nc(-c3ccc(C(=O)Nc4cc(C(F)(F)CC)ccn4)cc3)c3cncc(Cl)c32)C1 [BCD-BTK-215, (R)-4-(1-(1-acryloylpiperidin-3-yl)-7-chloro-1H-pyrazolo[4,3-c]pyridin-3-yl)-N-(4-(1,1-difluoropropyl)pyridin-2-yl)benzamide]							0.0358	2.93	8	> 100					> 100	>34.11
C=CC(=O)N1CCC[C@@H](n2nc(-c3ccc(C(=O)Nc4ncccc4F)cc3)c3cncc(C#N)c32)C1 [BCD-BTK-235, 4-{7-cyano-1-[(3R)-1-(prop-2-enoyl)piperidin-3-yl]-1H-pyrazolo[4,3-c]pyridin-3-yl}-N-(3-fluoropyridin-2-yl)benzamide]							0.0139	18.6	> 100	> 100		100			> 100	>5.37
C=CC(=O)N1CCC[C@@H](n2nc(-c3ccc(C(=O)Nc4cccc(F)n4)cc3)c3c(N)ncc(Cl)c32)C1 [BCD-BTK-250, (R)-4-(1-(1-acryloylpiperidin-3-yl)-4-amino-7-chloro-1H-pyrazolo[4,3-c]pyridin-3-yl)-N-(6-fluoropyridin-2-yl)benzamide]							0.0153	2.38	3.26						12.2	5.13
C=CC(=O)N1CCC[C@H](Cn2nc(-c3ccc(C(=O)Nc4ccccn4)cc3)c3cncc(Cl)c32)C1 [BCD-BTK-290, (S)-4-(1-((1-acryloylpiperidin-3-yl)methyl)-7-chloro-1H-pyrazolo[4,3-c]pyridin-3-yl)-N-(pyridin-2-yl)benzamide]							0.0196				100.0	100				
